Each block holds one compound with its values, some of them ahead of it.
Assays:
[1] = format: physicochemical
Description: The dimethyl isosorbide is capable of solubilizing up to 200 g per liter of neat propyl magnolol or isopropyl magnolol, up to 100 g per liter of isobutyl magnolol, or up to 50 g per liter of butyl magnolol. In certain embodiments, the amount of dimethyl isosorbide is at least 5 times the weight of the propyl magnolol or isopropyl magnolol in the composition. In certain embodiments, the amount of dimethyl isosorbide is at least 10 times the weight of isobutyl magnolol in the composition. In certain embodiments, the amount of dimethyl isosorbide is at least 20 times the weight of butyl magnolol in the composition.

[2] = Solubilizing isobutyl magnolol with other solubilizers; format: physicochemical
Description: It was surprising that dimethyl isosorbide was able to solubilize these analogs.

SMILES: CCCCc1ccc(O)c(-c2cc(CCCC)ccc2O)c1 [butyl magnolol, 5,5′-di-n-butylbiphenyl-2,2′-diol]
amount of neat magnolol analog solubilized by dimethyl isosorbide [1]: up to 50 g per liter

amount of neat magnolol analog solubilized by dimethyl isosorbide [1]: up to 100 g per liter | ability to solubilize ([2]; solubilizer C12-15 alkyl benzoate): not able to solubilize | ability to solubilize ([2]; solubilizer PEG-7 glyceryl cocoate): not able to solubilize | ability to solubilize ([2]; solubilizer PEG-8/SMDI copolymer): not able to solubilize | ability to solubilize ([2]; solubilizer PPG-2 hydroxyethyl cocoamide): not able to solubilize | ability to solubilize ([2]; solubilizer PPG-5 laureth-5 (Eumulgin ES)): not able to solubilize | ability to solubilize ([2]; solubilizer isopropyl myristate): not able to solubilize | ability to solubilize ([2]; solubilizer poloxamer 124): not able to solubilize
SMILES: CC(C)Cc1ccc(O)c(-c2cc(CC(C)C)ccc2O)c1 [isobutyl magnolol, 5,5′-di-isobutylbiphenyl-2,2′-diol]

amount of neat magnolol analog solubilized by dimethyl isosorbide [1]: up to 200 g per liter
SMILES: CC(C)c1ccc(O)c(-c2cc(C(C)C)ccc2O)c1 [isopropyl magnolol, 5,5′-di-isopropylbiphenyl-2,2′-diol]

amount of neat magnolol analog solubilized by dimethyl isosorbide [1]: up to 200 g per liter
SMILES: CCCc1ccc(O)c(-c2cc(CCC)ccc2O)c1 [propyl magnolol, 5,5′-di-n-propylbiphenyl-2,2′-diol]

Source: patent publication US20140341818A1, “SOLUBILIZED MAGNOLOL ANALOGS” (COLGATE-PALMOLIVE COMPANY, priority 2011, published 2014)
